Laboratory results reported in ChEMBL document CHEMBL1201862, “PubChem BioAssay data set” (2004).
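The compound was tested at five concentrations on cells cultured in 96-well plates, with a 48-hour exposure period. At the GI50, growth is halved.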 The source made the active and inactive calls. Rule as the data show it: active = GI50 up to about 1.1 µM and inactive = higher.

Legend:
Assay in all cases: inhibition of tumour cell growth, NCI panel, 48 h
HCT-15 = test system: HCT-15
A498 = test system: A498
XF498 = test system: XF498
Malme-3M = test system: Malme-3M
CCRF-CEM = test system: CCRF-CEM
OVCAR-3 = test system: OVCAR-3
U-251 = test system: U-251
M19-MEL = test system: M19-MEL
HOP-62 = test system: HOP-62
SK-OV-3 = test system: SK-OV-3
COLO 205 = test system: COLO 205
SK-MEL-28 = test system: SK-MEL-28
RPMI-8226 = test system: RPMI-8226
DMS-114 = test system: DMS-114
SN12C = test system: SN12C
HL-60 = test system: HL-60
HCT-116 = test system: HCT-116
NCI-H226 = test system: NCI-H226
DMS-273 = test system: DMS-273
HOP-18 = test system: HOP-18
UACC-62 = test system: UACC-62
SNB-75 = test system: SNB-75
LOX IMVI = test system: LOX IMVI
OVCAR-4 = test system: OVCAR-4
SF-539 = test system: SF-539
NCI-H460 = test system: NCI-H460
UACC-257 = test system: UACC-257
MOLT-4 = test system: MOLT-4
HCC 2998 = test system: HCC 2998
MCF7 = test system: MCF7
SK-MEL-5 = test system: SK-MEL-5
SW-620 = test system: SW-620
OVCAR-5 = test system: OVCAR-5
NCI-H522 = test system: NCI-H522
SK-MEL-2 = test system: SK-MEL-2
A549 = test system: A549
SNB-78 = test system: SNB-78
IGROV-1 = test system: IGROV-1
SNB-19 = test system: SNB-19
OVCAR-8 = test system: OVCAR-8
HOP-92 = test system: HOP-92
SF-268 = test system: SF-268
EKVX = test system: EKVX
HT-29 = test system: HT-29
KM12 = test system: KM12
UO-31 = test system: UO-31
NCI/ADR-RES = test system: NCI/ADR-RES
RXF 393 = test system: RXF 393
DLD-1 = test system: DLD-1
SF-295 = test system: SF-295
K562 = test system: K562
NCI-H23 = test system: NCI-H23
KM-20L2 = test system: KM-20L2
M14 = test system: M14
TK-10 = test system: TK-10
SR = test system: SR
ACHN = test system: ACHN
LXFL 529 = test system: LXFL 529
CAKI-1 = test system: CAKI-1
786-0 = test system: 786-0

## COC(=O)C(C/C=C(\C)c1ccc(Cl)cc1)C(C)=O (stereo not drawn)
HCT-15
  GI50: 37.5 µM
A498
  GI50: 34.4 µM (inactive)
XF498
  GI50: > 65.8 µM (inactive)
Malme-3M
  GI50: 40.3 µM (inactive)
CCRF-CEM
  GI50: 30.1 µM (inactive)
OVCAR-3
  GI50: 32.4 µM (inactive)
U-251
  GI50: 26.1 µM (inactive)
M19-MEL
  GI50: 32.7 µM (inactive)
HOP-62
  GI50: > 56 µM (inactive)
SK-OV-3
  GI50: > 100 µM (inactive)
COLO 205
  GI50: 59.8 µM (inactive)
SK-MEL-28
  GI50: 61.5 µM (inactive)
RPMI-8226
  GI50: 24.2 µM (inactive)
DMS-114
  GI50: 19.9 µM (inactive)
SN12C
  GI50: 56 µM (inactive)
HL-60
  GI50: 14.6 µM (inactive)
HCT-116
  GI50: 41.7 µM (inactive)
NCI-H226
  GI50: 24.6 µM (inactive)
DMS-273
  GI50: 32.7 µM (inactive)
HOP-18
  GI50: 40.3 µM (inactive)
UACC-62
  GI50: 38.5 µM (inactive)
SNB-75
  GI50: 29.2 µM (inactive)
LOX IMVI
  GI50: 14.9 µM (inactive)
OVCAR-4
  GI50: 27.2 µM (inactive)
SF-539
  GI50: 99.5 µM (inactive)
NCI-H460
  GI50: > 100 µM (inactive)
UACC-257
  GI50: 23 µM (inactive)
MOLT-4
  GI50: 17.9 µM (inactive)
HCC 2998
  GI50: 75.9 µM (inactive)
MCF7
  GI50: 37.7 µM (inactive)
SK-MEL-5
  GI50: 21.3 µM (inactive)
SW-620
  GI50: 50.9 µM (inactive)
OVCAR-5
  GI50: 16.4 µM (inactive)
NCI-H522
  GI50: 22.5 µM (inactive)
SK-MEL-2
  GI50: 5.53 µM (inactive)
A549
  GI50: 31 µM (inactive)
SNB-78
  GI50: > 56.8 µM (inactive)
IGROV-1
  GI50: 53.6 µM (inactive)
SNB-19
  GI50: > 100 µM (inactive)
OVCAR-8
  GI50: 52 µM (inactive)
HOP-92
  GI50: 19.5 µM (inactive)
SF-268
  GI50: 48.3 µM (inactive)
EKVX
  GI50: 54.5 µM (inactive)
HT-29
  GI50: 32.3 µM (inactive)
KM12
  GI50: 37 µM (inactive)
UO-31
  GI50: 22.9 µM (inactive)
NCI/ADR-RES
  GI50: 23.7 µM (inactive)
RXF 393
  GI50: 26.7 µM (inactive)
DLD-1
  GI50: 57.1 µM (inactive)
SF-295
  GI50: 39.9 µM (inactive)
K562
  GI50: 36.4 µM (inactive)
NCI-H23
  GI50: 35.5 µM (inactive)
KM-20L2
  GI50: 35.9 µM (inactive)

## COC(=O)[C@@]12OC[C@]34C([C@@H](O)C1O)[C@@]1(C)CC(=O)C(OC(=O)CC(C)C(F)(F)F)=C(C)C1C[C@H]3OC(=O)[C@H](O)[C@H]42 (stereo partly drawn)
HCT-15
  GI50: > 62.5 µM
A498
  GI50: 0.156 µM (active)
M14
  GI50: 1.99 µM (inactive)
XF498
  GI50: 0.13 µM (active)
Malme-3M
  GI50: 0.215 µM (active)
CCRF-CEM
  GI50: 4.03 µM (inactive)
U-251
  GI50: 4.79 µM (inactive)
M19-MEL
  GI50: 0.434 µM (active)
HOP-62
  GI50: 15 µM (inactive)
SK-OV-3
  GI50: 5.24 µM (inactive)
COLO 205
  GI50: 6.81 µM (inactive)
SK-MEL-28
  GI50: 1.53 µM (inactive)
RPMI-8226
  GI50: 0.594 µM (active)
DMS-114
  GI50: 1.44 µM (inactive)
SN12C
  GI50: 2 µM (inactive)
HL-60
  GI50: 0.268 µM (active)
HCT-116
  GI50: 2.47 µM (inactive)
TK-10
  GI50: 5.51 µM (inactive)
NCI-H226
  GI50: 2.06 µM (inactive)
SR
  GI50: 2.73 µM (inactive)
DMS-273
  GI50: 0.379 µM (active)
HOP-18
  GI50: 1.99 µM (inactive)
UACC-62
  GI50: 1.12 µM (active)
SNB-75
  GI50: 2.11 µM (inactive)
ACHN
  GI50: 8.22 µM (inactive)
OVCAR-4
  GI50: 14.7 µM (inactive)
SF-539
  GI50: 1.51 µM (inactive)
NCI-H460
  GI50: 1.77 µM (inactive)
UACC-257
  GI50: 2.93 µM (inactive)
MOLT-4
  GI50: 0.771 µM (active)
HCC 2998
  GI50: 2 µM (inactive)
SK-MEL-5
  GI50: 1.63 µM (inactive)
SW-620
  GI50: 1.21 µM (inactive)
OVCAR-5
  GI50: 19.6 µM (inactive)
NCI-H522
  GI50: 3.46 µM (inactive)
SK-MEL-2
  GI50: 2.95 µM (inactive)
A549
  GI50: 17.3 µM (inactive)
SNB-78
  GI50: 29.2 µM (inactive)
IGROV-1
  GI50: 2.22 µM (inactive)
SNB-19
  GI50: 0.809 µM (active)
OVCAR-8
  GI50: 4.71 µM (inactive)
LXFL 529
  GI50: 3.81 µM (inactive)
HOP-92
  GI50: 0.887 µM (active)
SF-268
  GI50: 6.85 µM (inactive)
CAKI-1
  GI50: 9.4 µM (inactive)
EKVX
  GI50: 26.5 µM (inactive)
HT-29
  GI50: 6.92 µM (inactive)
786-0
  GI50: 1.92 µM (inactive)
KM12
  GI50: 11.2 µM (inactive)
UO-31
  GI50: 10.6 µM (inactive)
RXF 393
  GI50: 4.62 µM (inactive)
SF-295
  GI50: 5.16 µM (inactive)
K562
  GI50: 6.05 µM (inactive)
NCI-H23
  GI50: 1.38 µM (inactive)
KM-20L2
  GI50: 3.8 µM (inactive)
